Assays:
Format in all cases: in vivo, mouse
HSPB1^S135F CMT2F mice = assay: Histopathological analysis: axon size of sciatic nerve fiber in HSPB1^S135F CMT2F mice; details: mean ± SEM
Method: This experiment was made to confirm the effect of the compound of the present disclosure on the axon size of the sciatic nerve fiber.
6.5 to 8.5-month-old male HSPB1^S135F CMT2F mice were provided with a standard diet (Central Lab Animal, Inc.) and water ad libitum and were housed in a controlled environment with a temperature (22±2° C.), humidity (44-56%), and a 12-hour light-dark cycle.
Compound 43 (1 and 10 mg/kg) of the present disclosure was orally administered repeatedly twice a day for 12 weeks. After the final treatment, the sciatic nerve was collected at 0.5 hours and fixed overnight in a 2.5% glutaraldehyde solution (340855, Sigma). A sample was transferred to the Department of Pathology in Asan Hospital for semithin sections and toluidine blue (T3260, Sigma) staining.
The fixed sample was processed conventionally for image analysis. A […] section was prepared and stained with toluidine blue.
A histological evaluation was performed under optical microscopy. Pathological changes including demyelination, remyelination, abnormally thin myelin, and axonal morphological change were investigated from the section. At last, an axon diameter was analyzed with Image J software.
Data were expressed as mean±SEM. One-way ANOVA and post-hoc analysis using Dunnett's test were used for statistical significance between the HSPB1^S135F CMT2F (vehicle) group and the HSPB1^S135F CMT2F (Compound 43) group, and the paired T-test was used for statistical significance between the WT group and the HSPB1^S135F CMT2F (vehicle) group. All statistical analyses were performed with GraphPad Prism 5.0.

C3 CMT1A mice [1] = assay: Histopathologic evaluation of sural nerves in C3 CMT1A mice
Method: (§1) Ten-week-old C3 CMT1A mice were provided with a standard diet (Central Lab Animal, Inc.) and water ad libitum and were housed in a controlled environment with a temperature of 22±2° C., a humidity of 44-56% and a 12-hour light-dark cycle. All experimental procedures were approved and performed according to the Institutional Animal Care and Use Committee (IACUC) of the Korea CKD Laboratory Animal Center (with an approved number: S-17_033).
Vehicle is 0.5% […] (MC), and each group was administered vehicle or compound 43 for eight weeks. TG or C3 refers to C3 CMT1A mice; a wild type (WT) is a group in which only vehicle is administered to normal mice; Vehicle(C3) or C3 group is a group in which only vehicle is administered to C3 CMT1A mice; and compound 43 is a group in which compound 43 is administered to C3 CMT1A mice with five animals in each group.
At eight weeks after administering vehicle or drug (compound 43), the sural nerves were collected at 0.5 hours after the final drug administration and then fixed overnight in 2.5% glutaraldehyde solution. The fixed samples were subjected to general tissue processing for image analysis, sectioned with a thickness of […], and stained with toluidine blue. Histological evaluation was performed on imaging files taken with an optical microscopy. In each sample, morphological changes of myelin, such as demyelination, remyelination, etc., and pathological changes, including a reduction in axon diameter, were evaluated. The axon and myelin diameters were analyzed with Image J software and a G-ratio thereof was calculated as the ratio of an internal axon diameter to a total external diameter, and the results are shown in FIGS. 21 to 23.
Data were represented as mean±SEM. Statistical significance between groups was tested using one-way ANOVA and post hoc analysis was performed by Dunnett's test. All statistical analyses were performed with GraphPad Prism 9.0.

C3 CMT1A mice [2] = assay: Innervation of neuromuscular junctions (gastrocnemius) in C3 CMT1A mice
Method: as §1
Vehicle is 0.5% […] (MC), and each group was administered vehicle or compound 43 for seven weeks. […]
In addition, the section slide samples with at least 80 neuromuscular junctions per sample were divided into: fully innervation for a case in which patterns of having two antibodies positively stained are fully overlapped on the double staining with anti-synaptotagmin-2 and α-bungarotoxin; partially innervation for a case in which the patterns are partially overlapped; and denervation for a case in which no pattern is overlapped, and the each percentage value was calculated and the significance and graph of the results were analyzed and expressed through Prism 9, and are shown in FIG. 20.

[3] = 10 mg/Kg PO BID eight weeks (FIG. 21)

## O=C(N1CCS(=O)(=O)CC1)N(Cc1ccc(-c2nnc(C(F)F)o2)cn1)c1ccccc1 [Compound 43, N-((5-(5-(difluoromethyl)-1,3,4-oxadiazol-2-yl)pyridin-2-yl)methyl)-N-phenylthiomorpholine-4-carboxamide 1,1-dioxide]
HSPB1^S135F CMT2F mice; 1 mg/kg PO BID 12 weeks
  axons with Diameter of Axon (μm) 1-2: 691 ± 74
  axons with Diameter of Axon (μm) 2-3: 574 ± 54
  axons with Diameter of Axon (μm) 3-4: 429 ± 70
  axons with Diameter of Axon (μm) 4-5: 269 ± 57
  axons with Diameter of Axon (μm) 5-6: 196 ± 40
  axons with Diameter of Axon (μm) 6-7: 128 ± 26
  axons with Diameter of Axon (μm) 7-8: 83 ± 21
  axons with Diameter of Axon (μm) 8-9: 36 ± 13
  axons with Diameter of Axon (μm) 9-10: 12 ± 5
  axons with Diameter of Axon (μm) <1: 273 ± 64
  axons with Diameter of Axon (μm) >10: 5 ± 3
HSPB1^S135F CMT2F mice; 10 mg/kg PO BID 12 weeks
  axons with Diameter of Axon (μm) 1-2: 565 ± 26
  axons with Diameter of Axon (μm) 2-3: 561 ± 49
  axons with Diameter of Axon (μm) 3-4: 588 ± 29
  axons with Diameter of Axon (μm) 4-5: 265 ± 31
  axons with Diameter of Axon (μm) 5-6: 161 ± 21
  axons with Diameter of Axon (μm) 6-7: 112 ± 20
  axons with Diameter of Axon (μm) 7-8: 67 ± 12
  axons with Diameter of Axon (μm) 8-9: 39 ± 12
  axons with Diameter of Axon (μm) 9-10: 16 ± 7
  axons with Diameter of Axon (μm) <1: 124 ± 42
  axons with Diameter of Axon (μm) >10: 6 ± 5
C3 CMT1A mice [1]; [3]
  axon diameter (sural nerve): increased
  myelin sheath thickness (sural nerve): increased
C3 CMT1A mice [1]; 10 mg/Kg PO BID eight weeks (FIG. 22)
  slope of g-ratio (sural nerve): lower slope than that of vehicle-treated animals
C3 CMT1A mice [1]; 10 mg/Kg PO BID eight weeks (FIG. 23)
  proportion of axons with a large diameter (sural nerve): tendency to increase
C3 CMT1A mice [2]; 10 mg/Kg PO BID seven weeks (FIG. 20)
  proportion of partially innervated NMJ and denervated NMJ: remarkably decreased
C3 CMT1A mice [2]; 10 mg/Kg PO BID seven weeks (FIGS. 19 and 20)
  fully innervated NMJ: increased
